Measurements: US12077503B2, “Substituted cyclic amides and their use as herbicides” (FMC CORPORATION, priority 2015, dated 2024)

What was measured:
Type in all cases: in vivo
Kochia (Kochia scoparia) [1] = assay: Test A preemergence
Summary of the method: (§1)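 Visual injury scores from 0, no effect, to 100, complete control, were assigned versus untreated controls roughly 10 d after treatment in the greenhouse. Test chemicals, formulated with surfactant in a non-phytotoxic solvent, were applied to planted seeds as a preemergence soil spray or postemergence to one- to two-leaf plants 2 to 10 cm tall, in loam–sand soil.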

[2] = system: barnyardgrass (Echinochloa crus-galli); assay: Test A preemergence
Summary of the method: as §1

[3] = system: giant foxtail (Setaria faberii); assay: Test A preemergence
Summary of the method: as §1

[4] = system: pigweed (Amaranthus retroflexus); assay: Test A preemergence
[5] = system: ragweed (common ragweed, Ambrosia elatior); assay: Test A preemergence
Summary of the method: as §1

[6] = system: ryegrass, Italian (Italian ryegrass, Lolium multiflorum); assay: Test A preemergence
Summary of the method: as §1

[7] = system: Galium (catchweed bedstraw, Galium aparine); assay: Test A postemergence
Summary of the method: as §1

Kochia (Kochia scoparia) [8] = assay: Test A postemergence
Summary of the method: as §1

[9] = system: barnyardgrass (Echinochloa crus-galli); assay: Test A postemergence
Summary of the method: as §1

[10] = system: blackgrass (Alopecurus myosuroides); assay: Test A postemergence
Summary of the method: as §1

corn (Zea mays) = assay: Test A postemergence
Summary of the method: as §1

[11] = system: giant foxtail (Setaria faberii); assay: Test A postemergence
Summary of the method: as §1

[12] = system: pigweed (Amaranthus retroflexus); assay: Test A postemergence
Summary of the method: as §1

[13] = system: ragweed (common ragweed, Ambrosia elatior); assay: Test A postemergence
Summary of the method: as §1

[14] = system: ryegrass, Italian (Italian ryegrass, Lolium multiflorum); assay: Test A postemergence
Summary of the method: as §1

[15] = system: wheat (Triticum aestivum); assay: Test A postemergence
Summary of the method: as §1

[16] = system: barnyardgrass (Echinochloa crus-galli); assay: Test B flooded paddy test; conditions: Flood, 250 g ai/ha; 0 to 100 scale where 0 is no effect and 100 is complete control; 13 to 15 d
Summary of the method: (§2)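 Response scored visually against untreated controls, 0 = no effect and 100 = complete control, 13–15 d after treatment in the greenhouse. Compounds added to paddy water held 3 cm above soil surface. Treatment given at 2-leaf stage.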

[17] = system: ducksalad (Heteranthera limosa); assay: Test B flooded paddy test; conditions: Flood, 250 g ai/ha; 0 to 100 scale where 0 is no effect and 100 is complete control; 13 to 15 d
Summary of the method: as §2

rice (Oryra sativa) = assay: Test B flooded paddy test; conditions: Flood, 250 g ai/ha; 0 to 100 scale where 0 is no effect and 100 is complete control; 13 to 15 d
Summary of the method: as §2

[18] = system: sedge, umbrella (small-flower umbrella sedge, Cyperus difformis); assay: Test B flooded paddy test; conditions: Flood, 250 g ai/ha; 0 to 100 scale where 0 is no effect and 100 is complete control; 13 to 15 d
Summary of the method: as §2

[19] = 125 g ai/ha, Preemergence, visual injury after approximately 10 d, 0 to 100 scale where 0 is no effect and 100 is complete control
[20] = 500 g ai/ha, preemergence, 0 to 100 scale, 0 = no effect, 100 = complete control
[21] = 125 g ai/ha, postemergence, visual rating after approx. 10 d, 0 to 100 scale (0 no effect, 100 complete control)
[22] = Postemergence, 500 g ai/ha, 0 to 100 scale where 0 is no effect and 100 is complete control

O=C1NCC(c2ccc(F)cc2F)C1C(=O)Nc1ccccc1F (stereo not drawn) [Compound 620]
10: Plant response rating, Barnyardgrass [16]
65: Plant response rating, Ducksalad [17]
30: Plant response rating, Foxtail, Giant [11, 21]
20: Plant response rating, Kochia (Kochia (Kochia scoparia) [1]; [20]) | Plant response rating, Galium [7, 22] | Plant response rating, Barnyardgrass [9, 21]
90: Plant response rating, Foxtail, Giant [3, 20]
60: Plant response rating, Barnyardgrass [9, 22]
50: Plant response rating, Foxtail, Giant [11, 22]
0: Plant response rating, Kochia (Kochia (Kochia scoparia) [1]; [19]) | Plant response rating, Pigweed [4, 19] | Plant response rating, Pigweed [4, 20] | Plant response rating, Ragweed [5, 19] | Plant response rating, Ragweed [5, 20] | Plant response rating, Ryegrass, Italian [6, 19] | Plant response rating, Ryegrass, Italian [6, 20] | Plant response rating, Galium [7, 21] | Plant response rating, Kochia (Kochia (Kochia scoparia) [8]; [21]) | Plant response rating, Kochia (Kochia (Kochia scoparia) [8]; [22]) | Plant response rating, Blackgrass [10, 21] | Plant response rating, Blackgrass [10, 22] | Plant response rating, Corn (corn (Zea mays); [21]) | Plant response rating, Corn (corn (Zea mays); [22]) | Plant response rating, Pigweed [12, 21] | Plant response rating, Pigweed [12, 22] | Plant response rating, Ragweed [13, 21] | Plant response rating, Ragweed [13, 22] | Plant response rating, Ryegrass, Italian [14, 21] | Plant response rating, Ryegrass, Italian [14, 22] | Plant response rating, Wheat [15, 21] | Plant response rating, Wheat [15, 22] | Plant response rating, Rice (rice (Oryra sativa)) | Plant response rating, Sedge, Umbrella [18]
80: Plant response rating, Barnyardgrass [2, 20] | Plant response rating, Foxtail, Giant [3, 19]
70: Plant response rating, Barnyardgrass [2, 19]
